For 1 compound, IC50 results are on record in paper PMC5053890 (Bioorganic & medicinal chemistry, 2016).

The target of this test is T1, GVIA iPLA2 (Homo sapiens, UniProt O60733).
T1 sequence (O60733 1-806): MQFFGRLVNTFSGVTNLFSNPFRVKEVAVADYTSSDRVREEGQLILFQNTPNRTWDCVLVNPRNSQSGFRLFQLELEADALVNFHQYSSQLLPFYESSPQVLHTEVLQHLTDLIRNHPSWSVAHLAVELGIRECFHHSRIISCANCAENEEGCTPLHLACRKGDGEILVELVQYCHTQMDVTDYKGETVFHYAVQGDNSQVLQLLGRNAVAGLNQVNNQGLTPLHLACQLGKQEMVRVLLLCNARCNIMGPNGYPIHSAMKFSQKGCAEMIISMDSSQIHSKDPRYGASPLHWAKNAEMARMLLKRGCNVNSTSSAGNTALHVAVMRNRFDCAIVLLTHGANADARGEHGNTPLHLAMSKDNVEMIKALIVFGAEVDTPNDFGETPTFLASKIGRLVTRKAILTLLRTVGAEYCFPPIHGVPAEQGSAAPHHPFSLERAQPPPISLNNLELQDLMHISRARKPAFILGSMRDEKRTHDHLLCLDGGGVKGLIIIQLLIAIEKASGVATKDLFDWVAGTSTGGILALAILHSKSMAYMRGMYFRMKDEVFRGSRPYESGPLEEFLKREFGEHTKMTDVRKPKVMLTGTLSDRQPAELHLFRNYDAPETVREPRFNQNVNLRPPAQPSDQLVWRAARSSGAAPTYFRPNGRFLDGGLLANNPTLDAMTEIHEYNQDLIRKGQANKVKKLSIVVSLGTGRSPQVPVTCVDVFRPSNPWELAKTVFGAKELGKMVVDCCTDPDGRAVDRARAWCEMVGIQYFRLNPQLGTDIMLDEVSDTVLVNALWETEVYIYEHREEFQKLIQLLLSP
The test is described as follows: mixed micelle modified Dole assay, GVIA iPLA2. The conditions noted are these: read-out: IC50 (converted from XI(50)); 0.091 mole fraction corresponds to 50 μM. The test is classed as biochemical.

In the case of `CCCCCCCCSCC(=O)C(F)(F)F` [Compound 3], the IC50 was determined as 110 nM.

Broadly, the IC50 is the concentration at which inhibition is half-maximal.
